Counter-ions that a name gives are not always drawn.
Experiment: solubility
Assay type: physicochemical

Structure (SMILES): CO[C@@]1(NC(=O)CCC[C@@H](N)C(=O)O)C(=O)N2C(C(=O)O)=C(COC(N)=O)CS[C@@H]21 [Cephamycin C, reference compound]
- solubility in water-immiscible organic solvents (water-immiscible organic solvents): virtually insoluble

Structure (SMILES): CC=CC=CC1OC(O)(C(CC)C(=O)NCC=CC=C(C)C(OC)C(C)C2OC(C=CC=CC=C(C)C(=O)c3c(O)ccn(C)c3=O)C(O)C2O)C(O)C(OC2OC(C)C(OC3OC(C)C(OC)C(O)C3OC)C(OC)C2O)C1(C)C (stereo not drawn) [FR-02A as the ammonium salt]
- solubility in alcohol and chloroform (ammonium salt, alcohol and chloroform): soluble
- solubility in water (ammonium salt, water at pH 7.0 or higher): moderately soluble

From patent US4065356A, “Production of antibiotic FR-02A (efrotomycin) by streptomyces lactamdurans” (priority 1977, dated 1977)
